Data reported in PubChem BioAssay (NCI).
“And” between values parts separate entries of the source, which are not always exact repeats. Equal values may be shown once.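 Test compounds were applied to cells in 96-well plates for 48 hours at 5 doses. Here, GI50 denotes the concentration required for 50% inhibition of growth. The concentration for full growth arrest is given as TGI.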

How the values were obtained:
Test in all cases: DTP human tumour cell line panel, 48 h
OVCAR-8 ovarian = tested on: OVCAR-8 ovarian
HCT-116 colon = tested on: HCT-116 colon
A549 NSCLC = tested on: A549 NSCLC
SF-268 CNS = tested on: SF-268 CNS
SK-MEL-5 melanoma = tested on: SK-MEL-5 melanoma
SW-620 colon = tested on: SW-620 colon
CCRF-CEM leukemia = tested on: CCRF-CEM leukemia
HT29 colon = tested on: HT29 colon
SK-OV-3 ovarian = tested on: SK-OV-3 ovarian
UACC-257 melanoma = tested on: UACC-257 melanoma
EKVX NSCLC = tested on: EKVX NSCLC
OVCAR-5 ovarian = tested on: OVCAR-5 ovarian
NCI-H522 lung = tested on: NCI-H522 lung
CAKI-1 renal = tested on: CAKI-1 renal

Structure (SMILES)	TGI (OVCAR-8 ovarian)	TGI (HCT-116 colon) [µM]	TGI (A549 NSCLC)	TGI (SF-268 CNS)	TGI (SK-MEL-5 melanoma)	TGI (SW-620 colon) [µM]	TGI (CCRF-CEM leukemia)	TGI (HT29 colon)	TGI (SK-OV-3 ovarian) [µM]	TGI (UACC-257 melanoma)	TGI (EKVX NSCLC)	TGI (OVCAR-5 ovarian)	TGI (NCI-H522 lung)	TGI (CAKI-1 renal)	GI50 (SF-268 CNS)	GI50 (SK-OV-3 ovarian) [µM]	GI50 (CAKI-1 renal)	GI50 (HCT-116 colon)	GI50 (OVCAR-5 ovarian)
C/C(=C/C(=O)Nc1ccccc1)Nc1onc(C)c1C	> 100 µM	> 100	> 100 µM	> 100 µM	> 100 µM	> 100	> 100 µM	> 100 µM	> 100	> 100 µM	> 100 µM	> 100 µM	> 100 µM						
O=C1OC(c2ccccc2)=NC1c1ccccc1 (stereo not drawn)	> 100 µM	> 100	> 100 µM	> 100 µM	> 100 µM	> 100	> 100 µM	> 100 µM	> 100	> 100 µM	> 100 µM	> 100 µM	> 100 µM	> 100 µM					
COc1cc(OC2OC(CO)C(O)C(O)C2O)c2c(O)c3c(=O)cc(C)oc3cc2c1 (stereo not drawn)	> 100 µM	> 100	> 100 µM	> 100 µM	> 100 µM	> 100	> 100 µM	> 100 µM	> 100	> 100 µM	> 100 µM	> 100 µM	> 100 µM	> 100 µM					
CCOC(=O)Cc1cc(OC)c(OC)cc1/C(Cl)=C(\CO)c1ccc(OC)c(OC)c1	> 100 µM	> 100	> 100 µM		> 100 µM	> 100	> 100 µM	> 100 µM	> 100	> 100 µM	> 100 µM			> 100 µM					
CCCCCC(=O)N[C@@H](c1ccco1)[C@@H](O)C(=O)O[C@H]1C[C@@]2(O)[C@@H](OC(=O)c3ccccc3)[C@@H]3[C@]4(OC(C)=O)CO[C@@H]4C[C@H](O)[C@@]3(C)C(=O)[C@H](OC(C)=O)C(=C1C)C2(C)C	> 25 µM	> 25		> 25 µM	4.52 µM			> 25 µM	> 25		> 25 µM		0.00228 µM		0.0161 µM	0.00163	0.329 µM		
O=C1C(Cl)N(c2c(Cl)cccc2Cl)C1c1c[nH]c2ccccc12 (stereo not drawn)	> 100 µM	> 100	> 100 µM	> 100 µM	> 100 µM	> 100	> 100 µM	> 100 µM	> 100	> 100 µM	> 100 µM	> 100 µM	> 100 µM						
O=C(Nc1ccc([N+](=O)[O-])cc1)Nn1cnnc1	67 µM	> 100	> 100 µM	> 100 µM	> 100 µM	> 100	> 100 µM	> 100 µM	> 100	> 100 µM	> 100 µM	> 100 µM	> 100 µM	> 100 µM					
C[N+](C)(CCCCCC[N+](C)(C)CCCN1C(=O)c2cccc3cccc(c23)C1=O)CCCN1C(=O)c2cccc3cccc(c23)C1=O	> 100 µM	> 100	> 100 µM	> 100 µM	> 100 µM	> 100	> 100 µM	> 100 µM	> 100	> 100 µM	> 100 µM	> 100 µM	> 100 µM	> 100 µM					
COc1ccccc1/C=C(/C)[N+](=O)[O-]	4 µM and 4.24 µM		8.66 µM and 5.18 µM	30.4 µM and 4.94 µM	5.1 µM and 3.59 µM	43.1	13 µM and > 100 µM	12.6 µM and 9.89 µM		3.4 µM and 3.53 µM	20.1 µM and 12.3 µM	13.4 µM and 27.3 µM	2.91 µM and 3.2 µM	4.85 µM and 1.92 µM	5.87 µM and 2.18 µM		2.13 µM and 0.687 µM	5.36 µM and 2.35 µM	2.89 µM and 6.42 µM
O=NN1C(c2ccccc2)CNC(=O)CC1c1ccccc1 (stereo not drawn)	> 100 µM	> 100	> 100 µM	> 100 µM	> 93.1 µM	> 100	> 100 µM	> 100 µM	> 89	> 100 µM	> 100 µM	> 100 µM	46.8 µM	> 100 µM					
CC(C)(O)/C1=C/C=C/CCCCCCCCCC1	> 100 µM	> 100		> 100 µM	1.73 µM	> 100	> 100 µM	> 100 µM	> 100	> 100 µM	> 100 µM	> 100 µM	> 100 µM	> 100 µM					
O=[N+]([O-])C(=C/c1ccccc1)/C(=C\c1ccccc1)[N+](=O)[O-]	47.1 µM	31.7	78.8 µM	50 µM	30.2 µM	28.6	7.69 µM	31.4 µM	48.2	32.1 µM	34 µM	46.6 µM		29 µM					
CCNC(=O)C(C)C1CCC2(C)C=CC(=O)C(C)=C2C1O (stereo not drawn)	> 100 µM	> 100	> 100 µM	> 100 µM	> 100 µM	> 100	> 100 µM	> 100 µM	> 100	> 100 µM	> 100 µM	> 100 µM	> 100 µM	> 100 µM					
OCC1O[C@H](O[C@@H]2CCCN3CC(O)C(O)[C@@H]23)C(O)C(O)C1O (stereo partly drawn)	> 100 µM	> 100	> 100 µM	> 100 µM	> 100 µM	> 100	> 100 µM	> 100 µM	> 100	> 100 µM	> 100 µM	> 100 µM	> 100 µM	> 100 µM					
